Measured values as given in paper PMC6272176, “Antileishmanial and Cytotoxic Compounds from Valeriana wallichii and Identification of a Novel Nepetolactone Derivative” (Molecules, 2015).
Read-outs that look alike come from different tables or passages of the source. Values belong to the compound of their own block, whether it stands above or below them.

Columns and labels:
L. major promastigotes = assay: Antileishmanial activity against L. major promastigotes, AlamarBlue assay; type: cell-based, Leishmania major; conditions: for antileishmanial activity (in words): verbal rating; for IC50: Leishmania major, read-out: IC50 (L. major)
Method: (§1) All compounds isolated were subjected to the evaluation of their antileishmanial activity against L. major promastigotes in vitro and cytotoxicity against macrophages (J774.1 murine cell line) using the corresponding AlamarBlue^© assays (cf. Table 2).
(§2) Antileishmanial activity against L. major promastigotes and cytotoxicity against a murine macrophage cell line (J774.1) was determined using an AlamarBlue^© assay. Methods for both procedures have been reported previously. IC50 values are presented as mean values of two experiments.

[1] = tested on: J774.1 murine macrophage cell line; assay: Cytotoxicity against macrophages (J774.1), AlamarBlue assay; type: cell-based; conditions: for IC50: Mus musculus; for cytotoxicity (in words): verbal rating
Method: as §1, §2

[2] = L. major promastigotes in vitro
[3] = L. major promastigotes in vitro, values marked *: pure or synthesized compounds, given in µM, mean of two experiments
[4] = J774.1 macrophages, values marked *: pure or synthesized compounds, given in µM, mean of two experiments, read-out: IC50 (J774.1)
[5] = L. major promastigotes in vitro, fractions containing isolated compounds, mean of two experiments
[6] = J774.1 macrophages, fractions containing isolated compounds, mean of two experiments, read-out: IC50 (J774.1)
[7] = J774.1 macrophages, fractions containing isolated compounds, mean of two experiments

Compound: CC1(C)C2CCC1(C)C(OC(=O)C=Cc1ccc(O)c(O)c1)C2 (stereo not drawn) [Bornyl caffeate (1), bornyl caffeate]
- antileishmanial activity (in words) (L. major promastigotes; [2]): moderate antileishmanial activity
- IC50 (L. major promastigotes; [3]): 48.8 µM
- IC50 [1, 4]: 8.3 µM

Compound: CCCCCCCCCCCCCCCCOP(=O)([O-])OCC[N+](C)(C)C [Miltefosine, reference compound]
- IC50 [1, 4]: 56.5 µM

Compound: CC(C)C1CCC2(C)CCCC(=O)C2(C)C1 (stereo not drawn) [Valeranone (12), valeranone]
- antileishmanial activity (in words) (L. major promastigotes; [2]): moderate
- IC50 (L. major promastigotes; [5]): 60.8 µg/mL
- cytotoxicity (in words) ([1]; J774.1 macrophages): moderate
- IC50 [1, 6]: 42.6 µg/mL

Compound: C[C@@H]1CC[C@H]2[C@H](CO)COC(=O)[C@H]21 [compound 5, (4R,5S,8R,9S)-4-(Hydroxymethyl)-8-methylhexahydro-cyclopenta[c]pyranone]
- IC50 (L. major promastigotes; [5]): > 100 µg/mL
- IC50 [1, 6]: 17.5 µg/mL

Compound: CC(=O)OC1CC2C(COC(=O)CC(C)C)=COC(OC(=O)CC(C)C)C2C1(O)CCl (stereo not drawn) [compound 9, valechlorine]
- IC50 (L. major promastigotes; [5]): 2.3 µg/mL
- IC50 [1, 6]: 1.9 µg/mL

Compound: COc1cc(C2c3cc4c(cc3C(O)C3COC(=O)C23)OCO4)cc(OC)c1O (stereo not drawn) [compound 15, 4'-demethylpodophyllotoxin]
- IC50 (L. major) (L. major promastigotes; [5]): >100 µg/mL
- antileishmanial activity (in words) (L. major promastigotes; [2]): no antileishmanial activity
- IC50 (J774.1) [1, 7]: <0.8 µg/mL

Compound: COc1cc([C@@H]2c3cc4c(cc3[C@H](O)[C@H]3COC(=O)[C@H]23)OCO4)cc(OC)c1OC [compound 16, podophyllotoxin]
- antileishmanial activity (in words) (L. major promastigotes; [2]): no antileishmanial activity
- IC50 (L. major promastigotes): > 100 µg/mL
- IC50 ([1]; J774.1, read-out: IC50 (J774.1)): < 0.8 µg/mL

Compound: CC1CC(O)C2C1CC1CCC2(C)OC1(C)C (stereo not drawn) [α-Kessyl alcohol (11), α-kessyl alcohol]
- antileishmanial activity (in words) (L. major promastigotes; [2]): rather good antileishmanial activity
- IC50 (L. major promastigotes; [5]): 5.8 µg/mL
- IC50 [1, 6]: 1.7 µg/mL

Compound: CC(C)=CCCC(C)C1(O)CC=C(C)CC1 (stereo not drawn) [β-Bisabolol (10), β-bisabolol]
- antileishmanial activity (in words) (L. major promastigotes; [2]): moderate
- IC50 (L. major promastigotes; [5]): 52.2 µg/mL
- cytotoxicity (in words) ([1]; J774.1 macrophages): moderate
- IC50 [1, 6]: 37.1 µg/mL

Compound: pinoresinol [Pinoresinol (17)]
- IC50 (L. major) (L. major promastigotes; [5]): >100 µg/mL
- antileishmanial activity (in words) (L. major promastigotes; [2]): no antileishmanial activity
- IC50 (J774.1) [1, 7]: <0.8 µg/mL

More lines, main results first:

- IC50 (L. major promastigotes; [3]): > 100 µM
Compound: CC(C)CC(=O)OC1CC2CCC1(C)C2(C)C (stereo not drawn) [Bornyl isovalerate (13), bornyl isovalerate]
- antileishmanial activity (in words) (L. major promastigotes; [2]): no antileishmanial activity
- IC50 [1, 4]: > 100 µM

- IC50 (L. major promastigotes; [5]): 16.7 µg/mL
Compound: COc1ccc(C=CC(=O)OC2CC3CCC2(C)C3(C)C)cc1O (stereo not drawn) [compound 2, bornyl isoferulate]
- antileishmanial activity (in words) (L. major promastigotes; [2]): moderate antileishmanial activity
- IC50 [1, 6]: 34.7 µg/mL

- IC50 (L. major promastigotes; [5]): > 100 µg/mL
Compound: CC1CCC2(OC3OC(CO)C(O)C(O)C3O)C1C(=O)OC2(C)COC(=O)C=Cc1ccc(O)cc1 [compound 4, {[(3S,4S,7R,8S)-1-Oxo-3,7-dimethyl-4-(O-β-D-glucopyranosyl)oxy]hexahydrocyclopenta[c]furan-3-yl}-methyl-trans-4-hydroxycinnamate]
- IC50 [1, 6]: > 100 µg/mL

- IC50 (L. major promastigotes; [5]): 1.9 µg/mL
Compound: CCC(C)CC(=O)OC1OC=C(COC(=O)CC(C)C)C2CC(OC(C)=O)C(O)(COC(=O)C(OC(=O)CC(C)C)C(C)C)C12 (stereo not drawn) [compound 6]
- IC50 [1, 6]: < 0.8 µg/mL

- IC50 (L. major promastigotes; [5]): 0.8 µg/mL
Compound: CC(=O)OC1CC2C(COC(=O)CC(C)C)=COC(OC(=O)CC(C)C)C2C1(O)COC(=O)CC(C)C (stereo not drawn) [compound 7]
- IC50 [1, 6]: < 0.8 µg/mL

- IC50 (L. major promastigotes; [3]): 1.7 µM
Compound: CC(=O)OCC1=COC(OC(=O)CC(C)C)C2C1=CC(OC(=O)CC(C)C)C2(O)COC(=O)CC(C)C (stereo not drawn) [compound 8]
- IC50 [1, 4]: 1 µM
